Measured values: ChEMBL document CHEMBL5154708, “Synthesis of tropane-based σ1 receptor antagonists with antiallodynic activity” (Eur J Med Chem, 2022)

Legend:
[1] = molecular target: T1, Sigma intracellular receptor 2 (Rattus norvegicus, UniProt Q5U3Y7); test: Displacement of [3H]di-O-tolylguanidine from sigma 2 receptor in rat liver membrane by competitive radioligand receptor binding assay; assay type: cell membranes
T1 sequence (Q5U3Y7 whole entry): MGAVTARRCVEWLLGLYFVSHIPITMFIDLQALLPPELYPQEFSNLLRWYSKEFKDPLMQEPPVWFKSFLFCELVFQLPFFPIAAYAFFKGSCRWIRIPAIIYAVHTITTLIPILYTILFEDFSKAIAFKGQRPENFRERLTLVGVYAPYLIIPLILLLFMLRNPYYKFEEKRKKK

[2] = molecular target: Sigma non-opioid intracellular receptor 1 (Cavia porcellus, UniProt Q60492)
[3] = Drug metabolism in mouse liver microsomes assessed as compound oxidization incubated for 90 mins in presence of NAPDH; assay type: ADME, Microsome; settings: read-out: Drug metabolism
[4] = tested on: Mus musculus; test: Antiallodynic activity in capsaicin-induced mechanical allodynia CD1 mouse model assessed as reduction in mechanical allodynia administered subcutaneously preincubated for 30 min followed by capsaicin injection and measured after 15 mins by Von Frey filament assay; assay type: functional, organism-based; settings: dose 8-32 mg/kg, route sc, time 45.0 min, DDE = dose-dependent effect
[5] = Distribution coefficient between n-Octanol and aqueous buffer, logD of the compound in pH 7.4 buffer by LC/MS analysis; assay type: physicochemical
[6] = molecular target: Albumin (Homo sapiens, UniProt P02768); test: Protein binding in human serum albumin by HPAC analysis; assay type: ADME; settings: read-out: PB (converted)
Albumin, sequence (P02768 whole entry): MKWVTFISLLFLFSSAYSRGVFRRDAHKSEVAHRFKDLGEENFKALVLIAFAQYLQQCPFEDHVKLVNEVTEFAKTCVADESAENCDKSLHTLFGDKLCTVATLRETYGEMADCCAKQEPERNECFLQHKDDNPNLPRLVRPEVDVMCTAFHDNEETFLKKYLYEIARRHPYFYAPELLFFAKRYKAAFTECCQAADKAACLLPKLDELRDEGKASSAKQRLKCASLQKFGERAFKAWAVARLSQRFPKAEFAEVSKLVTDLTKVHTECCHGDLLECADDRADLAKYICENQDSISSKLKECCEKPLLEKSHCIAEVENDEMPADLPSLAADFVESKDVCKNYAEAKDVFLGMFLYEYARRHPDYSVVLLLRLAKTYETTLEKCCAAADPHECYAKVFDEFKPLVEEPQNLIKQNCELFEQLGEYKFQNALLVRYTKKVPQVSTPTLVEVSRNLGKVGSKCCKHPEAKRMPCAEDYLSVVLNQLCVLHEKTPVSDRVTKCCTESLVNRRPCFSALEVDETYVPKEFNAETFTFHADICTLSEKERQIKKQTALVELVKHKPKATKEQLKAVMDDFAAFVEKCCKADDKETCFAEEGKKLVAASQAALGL

Sigma non-opioid intracellular receptor 1, sequence (Q60492 whole entry): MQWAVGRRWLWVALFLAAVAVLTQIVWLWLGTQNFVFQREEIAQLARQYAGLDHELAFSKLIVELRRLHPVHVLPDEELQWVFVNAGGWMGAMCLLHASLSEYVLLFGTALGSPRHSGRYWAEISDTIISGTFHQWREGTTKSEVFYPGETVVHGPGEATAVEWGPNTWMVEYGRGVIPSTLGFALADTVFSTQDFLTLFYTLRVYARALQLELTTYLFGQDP

Compound | Ki [1] | Ki [2] | metabolised at 1.5 h [3] | Activity [4] | logD [5] | fraction unbound [6]
O[C@@H](CN1[C@@H]2CC[C@H]1C/C(=C/c1ccc(F)cc1)C2)c1ccccc1 | 29 nM | 18 nM |  |  |  | 
O[C@H](CN1[C@@H]2CC[C@H]1C/C(=C/c1ccc(F)cc1)C2)c1ccccc1 | 11 nM | 0.45 nM |  |  |  | 
OC(CN1CCC(Cc2ccc(F)cc2)CC1)c1ccc(Cl)cc1 (centres undefined) [ELIPRODIL] | 71 nM | 94 nM |  |  |  | 
O[C@@H](CN1[C@@H]2CC[C@H]1C/C(=C\c1ccc(F)cc1)C2)c1ccccc1 | 10 nM | 0.8 nM | 32% | Dde | 3.06 | 0.05
O[C@H](CN1[C@@H]2CC[C@H]1C/C(=C\c1ccc(F)cc1)C2)c1ccccc1 | 27 nM | 6.6 nM |  |  |  | 
